Literature values, collected in US12440455B2, “Methods of administering cannabinoids” (IMPACT NATURALS, INC., priority 2022, dated 2025).

Columns and labels:
SARS-CoV-2 = settings: Nguyen et al., Sci. Adv. 8, eabi6110 (2022)
CB2 = CB2 (Homo sapiens, UniProt P34972); settings: WHO assessment
Sequence of CB2 (P34972 whole entry, species assumed): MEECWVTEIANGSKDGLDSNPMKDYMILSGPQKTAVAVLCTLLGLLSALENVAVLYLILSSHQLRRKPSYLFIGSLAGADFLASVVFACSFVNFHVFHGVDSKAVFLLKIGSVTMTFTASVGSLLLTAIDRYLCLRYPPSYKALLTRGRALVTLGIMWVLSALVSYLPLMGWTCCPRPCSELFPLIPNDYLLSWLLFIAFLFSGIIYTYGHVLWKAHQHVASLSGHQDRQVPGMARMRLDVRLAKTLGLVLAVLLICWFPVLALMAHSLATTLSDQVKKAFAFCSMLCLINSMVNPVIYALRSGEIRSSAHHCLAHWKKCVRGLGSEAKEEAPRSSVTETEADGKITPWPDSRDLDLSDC

In the case of `C=C(C)[C@@H]1CCC(C)=C[C@H]1c1c(O)cc(CCCCC)cc1O` [Cannabidiol], the “inhibition of SARS-CoV-2 replication” value (SARS-CoV-2) is listed as “inhibit SARS-CoV-2 replication”, the “affinity to CB2” value (CB2) is listed as “low affinity” and the aqueous solubility is listed as “approximately 0.013 milligrams per milliliter”.
